We go through 1 compound from ChEMBL document CHEMBL4680122, “Design, synthesis and biological evaluation of new Axl kinase inhibitors containing 1,3,4-oxadiazole acetamide moiety as novel linker” (Eur J Med Chem, 2020).

One assay has as its system HT-29. The assay can be described thus: Potency index, ratio of foretinib IC50 to test compound IC50 for antiproliferative activity against human HT-29 cells. It counts as functional.
The target in assay [1] is T1, Tyrosine-protein kinase receptor UFO (Homo sapiens, UniProt P30530).
T1 sequence (P30530 whole entry): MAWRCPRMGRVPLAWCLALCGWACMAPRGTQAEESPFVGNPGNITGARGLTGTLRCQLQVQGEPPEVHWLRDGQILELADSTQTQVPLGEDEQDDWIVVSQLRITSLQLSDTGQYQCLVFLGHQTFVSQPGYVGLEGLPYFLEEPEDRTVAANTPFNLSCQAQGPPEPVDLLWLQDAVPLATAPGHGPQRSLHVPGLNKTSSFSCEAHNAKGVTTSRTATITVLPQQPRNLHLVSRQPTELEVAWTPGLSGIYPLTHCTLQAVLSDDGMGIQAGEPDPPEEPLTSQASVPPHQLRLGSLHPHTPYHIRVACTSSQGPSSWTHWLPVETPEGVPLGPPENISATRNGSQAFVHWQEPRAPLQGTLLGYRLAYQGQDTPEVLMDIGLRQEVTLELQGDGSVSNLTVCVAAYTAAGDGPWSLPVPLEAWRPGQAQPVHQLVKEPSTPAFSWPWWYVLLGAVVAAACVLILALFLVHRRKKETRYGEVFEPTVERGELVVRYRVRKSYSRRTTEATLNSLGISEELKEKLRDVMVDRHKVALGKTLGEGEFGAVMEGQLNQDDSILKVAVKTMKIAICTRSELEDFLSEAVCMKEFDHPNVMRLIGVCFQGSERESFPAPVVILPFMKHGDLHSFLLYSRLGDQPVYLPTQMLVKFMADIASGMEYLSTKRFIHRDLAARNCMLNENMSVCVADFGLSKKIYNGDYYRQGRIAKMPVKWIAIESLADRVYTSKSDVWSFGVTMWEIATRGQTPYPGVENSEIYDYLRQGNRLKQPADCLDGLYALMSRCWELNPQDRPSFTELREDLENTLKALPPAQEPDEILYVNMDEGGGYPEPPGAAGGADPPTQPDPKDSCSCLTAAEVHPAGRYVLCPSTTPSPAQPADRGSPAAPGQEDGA
Put plainly: Inhibition of human N-terminal GST-fused Axl cytoplasmic domain (464 to 885 residues) expressed in baculovirus expression system using CSKtide as substrate measured after 1 hr by mobility shift assay.

Assay [2] has as its target T2, Tyrosine-protein kinase receptor TYRO3 (Homo sapiens, UniProt Q06418).
T2 sequence (Q06418 whole entry): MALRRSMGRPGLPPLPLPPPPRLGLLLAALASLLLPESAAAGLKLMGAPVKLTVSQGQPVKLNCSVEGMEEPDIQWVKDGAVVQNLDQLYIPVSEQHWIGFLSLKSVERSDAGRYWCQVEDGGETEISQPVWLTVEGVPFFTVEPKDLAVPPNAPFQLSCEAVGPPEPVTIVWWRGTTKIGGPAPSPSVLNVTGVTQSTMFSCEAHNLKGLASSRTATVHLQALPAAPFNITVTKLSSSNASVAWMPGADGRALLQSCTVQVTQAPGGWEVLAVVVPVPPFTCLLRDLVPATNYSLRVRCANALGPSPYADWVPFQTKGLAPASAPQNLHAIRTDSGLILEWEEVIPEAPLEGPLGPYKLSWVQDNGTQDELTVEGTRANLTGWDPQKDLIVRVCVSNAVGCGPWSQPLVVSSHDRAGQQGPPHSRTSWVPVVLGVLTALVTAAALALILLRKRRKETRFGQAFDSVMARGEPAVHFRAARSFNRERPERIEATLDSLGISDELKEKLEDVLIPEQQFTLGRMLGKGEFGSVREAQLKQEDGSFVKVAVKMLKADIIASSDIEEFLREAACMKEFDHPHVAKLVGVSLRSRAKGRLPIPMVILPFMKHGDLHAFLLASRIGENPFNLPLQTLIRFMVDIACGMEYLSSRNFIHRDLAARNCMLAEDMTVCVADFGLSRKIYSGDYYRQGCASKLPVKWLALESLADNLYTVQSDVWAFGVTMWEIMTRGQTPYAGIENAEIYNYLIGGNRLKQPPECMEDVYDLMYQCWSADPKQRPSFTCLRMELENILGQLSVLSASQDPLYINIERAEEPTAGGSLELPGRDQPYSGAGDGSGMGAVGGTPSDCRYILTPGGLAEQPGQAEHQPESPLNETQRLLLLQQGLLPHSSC
Put plainly: Inhibition of Tyro3 (unknown origin).

In assay [3] the target is Tyrosine-protein kinase receptor UFO (Homo sapiens) (UniProt P30530). Particulars: dose 100.0 nM, time 1.0 hrs.
A further assay relates to H1975/Gefitinib. The assay can be described thus: cells. Particulars: Homo sapiens, 72 h.
Assay [4] has as its target Aurora kinase B (Homo sapiens) (UniProt Q96GD4). Put plainly: Inhibition of Aurora-B (unknown origin) at 200 nM relative to control.
In assay [5] the target is Macrophage-stimulating protein receptor (Homo sapiens) (UniProt Q04912). The assay can be described thus: Inhibition of Ron (unknown origin) at 200 nM relative to control.
Chain of Macrophage-stimulating protein receptor (Homo sapiens) (Q04912 25-304 limits assumed): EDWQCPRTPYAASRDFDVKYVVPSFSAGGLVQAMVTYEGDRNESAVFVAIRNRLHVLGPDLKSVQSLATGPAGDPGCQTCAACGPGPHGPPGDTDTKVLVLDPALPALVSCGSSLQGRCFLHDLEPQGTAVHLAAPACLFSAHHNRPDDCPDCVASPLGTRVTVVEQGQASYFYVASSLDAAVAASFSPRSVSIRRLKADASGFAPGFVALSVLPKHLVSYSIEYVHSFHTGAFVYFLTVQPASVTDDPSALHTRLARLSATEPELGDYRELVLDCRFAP
Chain of Macrophage-stimulating protein receptor (Homo sapiens) (Q04912 310-1400 limits assumed): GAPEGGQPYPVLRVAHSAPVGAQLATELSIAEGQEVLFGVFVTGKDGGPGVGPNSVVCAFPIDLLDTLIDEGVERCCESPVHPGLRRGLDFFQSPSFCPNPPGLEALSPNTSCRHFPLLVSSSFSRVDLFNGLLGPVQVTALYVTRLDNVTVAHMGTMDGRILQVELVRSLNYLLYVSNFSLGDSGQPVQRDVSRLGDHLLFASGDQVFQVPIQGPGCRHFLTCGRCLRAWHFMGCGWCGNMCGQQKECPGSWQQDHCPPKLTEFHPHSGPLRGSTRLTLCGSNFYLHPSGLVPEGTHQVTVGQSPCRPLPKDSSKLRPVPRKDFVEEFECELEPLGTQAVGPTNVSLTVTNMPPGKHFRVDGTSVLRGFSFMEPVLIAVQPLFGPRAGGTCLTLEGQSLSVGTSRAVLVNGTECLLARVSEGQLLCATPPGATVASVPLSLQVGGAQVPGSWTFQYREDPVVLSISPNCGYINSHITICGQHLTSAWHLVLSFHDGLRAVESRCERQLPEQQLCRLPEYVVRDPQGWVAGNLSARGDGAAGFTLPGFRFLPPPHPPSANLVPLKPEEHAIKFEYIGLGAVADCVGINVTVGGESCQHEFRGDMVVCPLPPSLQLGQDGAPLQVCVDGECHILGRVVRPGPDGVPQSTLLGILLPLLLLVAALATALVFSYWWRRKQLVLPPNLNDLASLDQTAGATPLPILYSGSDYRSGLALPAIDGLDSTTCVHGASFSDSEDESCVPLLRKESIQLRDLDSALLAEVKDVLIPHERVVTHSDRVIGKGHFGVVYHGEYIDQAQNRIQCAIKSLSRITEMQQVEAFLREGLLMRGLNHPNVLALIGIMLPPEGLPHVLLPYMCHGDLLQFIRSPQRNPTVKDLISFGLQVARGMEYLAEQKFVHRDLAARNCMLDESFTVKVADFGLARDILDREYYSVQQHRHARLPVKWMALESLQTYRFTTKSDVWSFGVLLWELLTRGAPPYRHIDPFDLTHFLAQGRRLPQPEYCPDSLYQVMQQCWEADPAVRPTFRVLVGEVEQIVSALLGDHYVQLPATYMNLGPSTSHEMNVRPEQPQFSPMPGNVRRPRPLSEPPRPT

As a reminder, the IC50 is the concentration needed to halve the response being measured. As usually defined, the inhibition is the percentage by which the read-out fell short of the control. Low values mean little suppression, high ones strong suppression.

Chain of Aurora kinase B (Homo sapiens) (Q96GD4 whole entry): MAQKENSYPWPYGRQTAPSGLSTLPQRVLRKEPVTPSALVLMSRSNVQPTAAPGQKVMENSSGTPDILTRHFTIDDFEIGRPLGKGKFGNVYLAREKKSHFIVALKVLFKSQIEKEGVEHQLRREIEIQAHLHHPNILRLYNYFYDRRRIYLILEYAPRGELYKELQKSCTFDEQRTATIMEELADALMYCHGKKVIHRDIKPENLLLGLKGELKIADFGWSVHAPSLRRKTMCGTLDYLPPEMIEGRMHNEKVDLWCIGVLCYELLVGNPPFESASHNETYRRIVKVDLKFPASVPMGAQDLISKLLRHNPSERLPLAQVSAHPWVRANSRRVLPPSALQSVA

Consider `COc1cc2c(Oc3ccc(NC(=O)C4(c5nnc(-c6ccc(F)cc6)o5)CC4)cc3F)ccnc2cc1OCCCN1CCCCC1`, for which, in the assay with HT-29, the “Ratio IC50” value is recorded as 1.57. In addition, the IC50 in assay [1] was 10 nM; in assay [2], greater than 200 nM; in the assay with H1975/Gefitinib, 107 nM. In addition, the inhibition in assay [3] is 93.7%; in assay [4], greater than 80%; in assay [5] it was greater than 80%.
